The data set in a line: RP, Thermo Scientific Acclaim RSLC 120 C18, 100 × 2.1 mm, 2.2 µm, 30 °C, 0.2 mL/min, estimated dead time 1.1 min; A: 90% water + 10% methanol + 0.01% formic acid + 5 mM ammonium formate, pH 3.61; B: methanol + 0.01% formic acid + 5 mM ammonium formate, pH 3.61; gradient (min/%B) 0/1 1/1 2/39 13/99.9 15/99.9 15.1/1 20.1/1. Conditions: stereoisomer not certain.

Here are results for 33 compounds from the RepoRT retention time repository (doi:10.1021/acs.analchem.2c02893).

Turning to `CCC(=O)c1ccc2c(c1)N(CCCN(C)C)c1ccccc1S2` [Promazine-Propionyl], the LC retention time is 8.49 min.

In the case of `CN(C)CC(CN1c2ccccc2Sc2ccccc21)N(C)C` (stereo not drawn) [Promazine-amino], the LC retention time is 8.54 min.

On to `CN(C)CCCN1c2ccccc2Sc2ccccc21` [Promazine], for which the LC retention time is 7.69 min.

On to `CNC(=O)Oc1cc(C)cc(C(C)C)c1` [Promecarb], for which the LC retention time is 9.51 min.

With `CC(CN1c2ccccc2Sc2ccccc21)N(C)C` (stereo not drawn) [Promethazine], the LC retention time is 7.53 min.

Turning to `COc1nc(NC(C)C)nc(NC(C)C)n1` [Prometon], the LC retention time is 8.86 min.

On to `CSc1nc(NC(C)C)nc(NC(C)C)n1` [Prometryn], for which the LC retention time is 10.1 min.

Take `CC(C)N(C(=O)CS(=O)(=O)O)c1ccccc1` [Propachlor-ESA]: the LC retention time was 5.46 min.

On to `CC(C)N(C(=O)C(=O)O)c1ccccc1` [Propachlor-OXA], for which the LC retention time was 5.13 min.

For `CC(C)N(C(=O)CCl)c1ccccc1` [Propachlor], the LC retention time was 8.25 min.

On to `NCC(O)COc1ccccc1C(=O)CCc1ccccc1` (stereo not drawn) [Propafenone-N-Desmethyl], for which the LC retention time was 7.09 min.

For the compound `CCCNCC(O)COc1ccccc1C(=O)CCc1ccccc1` (stereo not drawn) [Propafenone], the LC retention time is 7.81 min.

On to `CCCOC(=O)NCCCN(C)C` [Propamocarb], for which the LC retention time was 3.5 min.

Consider `CCC(=O)Nc1ccc(Cl)c(Cl)c1` [Propanil], for which the LC retention time is 9.38 min.

Turning to `CC(C)[N+](C)(CCOC(=O)C1c2ccccc2Oc2ccccc21)C(C)C` [Propantheline (I+)], the LC retention time was 7.35 min.

`CCCOP(=O)(OCCC)Oc1ccc(SC)cc1` [Propaphos]: the LC retention time was 10.8 min.

Take `CC(C)=NOCCOC(=O)C(C)Oc1ccc(Oc2cnc3cc(Cl)ccc3n2)cc1` (stereo not drawn) [Propaquizafop]: the LC retention time was 12.3 min.

For the compound `C#CCOS(=O)OC1CCCCC1Oc1ccc(C(C)(C)C)cc1` (stereo not drawn) [Propargite], the LC retention time was 12.8 min.

Consider `CC(C)Nc1nc(NC(C)C)[nH]c(=O)n1` [Propazine-2-hydroxy (Prometon-Hydroxy)], for which the LC retention time is 5.96 min.

As for `CC(C)Nc1nc(Cl)nc(NC(C)C)n1` [Propazine], the LC retention time was 9.16 min.

Take `CCNP(=S)(OC)OC(C)=CC(=O)OC(C)C` (stereo not drawn) [Propetamphos]: the LC retention time was 9.79 min.

As for `CC(C)OC(=O)Nc1ccccc1` [Propham], the LC retention time is 8.11 min.

For `CCCC1COC(Cn2cncn2)(c2ccc(Cl)cc2Cl)O1` (stereo not drawn) [Propiconazole], the LC retention time is 11 min.

Regarding `CCCOc1ccc(C(=O)CCN2CCCCC2)cc1` [Propipocaine], the LC retention time is 6.24 min.

As for `CCCOC(C(=O)OC1CCN(C)CC1)(c1ccccc1)c1ccccc1` [Propiverine], the LC retention time was 9.36 min.

For the compound `CNC(=O)Oc1ccccc1OC(C)C` [Propoxur], the LC retention time was 6.94 min.

Consider `CCCOc1nn(C(=O)NS(=O)(=O)c2ccccc2C(=O)OC)c(=O)n1C` [Propoxycarbazone], for which the LC retention time is 5.73 min.

For the compound `CCCOc1ccc(S(=O)(=O)N2CCN(CC)CC2)cc1-c1nc(=S)c2c([nH]1)c(CCC)nn2C` [Propoxyphenyl Thiohomosidenafil], the LC retention time is 10.5 min.

For `CCCOC(=O)c1ccc(O)cc1` [Propylparaben], the LC retention time was 8.36 min.

`CCCc1cc(=O)[nH]c(=S)[nH]1` [Propylthiouracil]: the LC retention time was 4.51 min.

Regarding `Cc1c(C(C)C)c(=O)n(-c2ccccc2)n1C` [Propyphenazone], the LC retention time is 7.23 min.

On to `C#CC(C)(C)NC(=O)c1cc(Cl)cc(Cl)c1` [Propyzamide (Pronamide)], for which the LC retention time was 9.69 min.

For the compound `Cc1ccc2c(-c3ccccc3)nc(=O)n(C(C)C)c2c1` [Proquazone], the LC retention time is 9.61 min.
